What was measured:
[1] = target: T1, Muscarinic acetylcholine receptor M5 (Homo sapiens, UniProt P08912); assay type: cell membranes, CHO-K1, Membrane; also: in other assays of this panel Not Active means under 50% inhibition at 10 µM
T1 sequence (P08912 whole entry): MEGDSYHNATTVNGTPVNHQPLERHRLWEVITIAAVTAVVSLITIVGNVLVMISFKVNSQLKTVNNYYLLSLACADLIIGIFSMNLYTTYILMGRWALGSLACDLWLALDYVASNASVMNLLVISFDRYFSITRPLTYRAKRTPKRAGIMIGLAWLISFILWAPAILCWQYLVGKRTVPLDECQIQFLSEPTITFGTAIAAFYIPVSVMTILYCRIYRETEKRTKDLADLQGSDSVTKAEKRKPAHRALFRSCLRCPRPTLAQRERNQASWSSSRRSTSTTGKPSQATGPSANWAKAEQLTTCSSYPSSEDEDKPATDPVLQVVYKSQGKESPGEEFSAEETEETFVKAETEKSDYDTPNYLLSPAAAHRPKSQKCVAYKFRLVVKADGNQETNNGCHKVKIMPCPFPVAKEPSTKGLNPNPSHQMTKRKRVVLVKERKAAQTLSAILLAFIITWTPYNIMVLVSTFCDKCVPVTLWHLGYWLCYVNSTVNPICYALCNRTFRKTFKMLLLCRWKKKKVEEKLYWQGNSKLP

[2] = target: T2, Caspase-1 (Homo sapiens, UniProt P29466); design: species or system Escherichia coli;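 also: Caspase-1 enzyme inhibition assay with a peptide substrate; in other assays of this panel Not Active means under 50% inhibition at 10 µM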
T2 sequence (P29466 whole entry): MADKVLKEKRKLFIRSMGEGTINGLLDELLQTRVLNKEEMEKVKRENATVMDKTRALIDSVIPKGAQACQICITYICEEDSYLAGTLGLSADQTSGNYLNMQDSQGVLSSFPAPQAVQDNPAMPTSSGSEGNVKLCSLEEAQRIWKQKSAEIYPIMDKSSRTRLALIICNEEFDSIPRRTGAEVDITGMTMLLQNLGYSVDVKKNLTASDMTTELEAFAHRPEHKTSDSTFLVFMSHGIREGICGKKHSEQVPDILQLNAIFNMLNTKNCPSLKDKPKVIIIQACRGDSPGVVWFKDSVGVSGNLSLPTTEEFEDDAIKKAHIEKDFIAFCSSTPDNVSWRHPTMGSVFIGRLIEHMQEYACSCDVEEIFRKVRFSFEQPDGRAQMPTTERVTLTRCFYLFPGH

[3] = DRUGMATRIX: Sodium/nucleoside co-transporter radioligand binding (ligand: nitrobenzylthioinosine); assay type: cell membranes, Cavia porcellus, Dunkin-Hartley, Cerebral cortex, Membrane; conditions: Not Active = under 50% inhibition at 10 µM
[4] = target: T3, Neuropeptide Y receptor type 2 (Homo sapiens, UniProt P49146); assay type: cell membranes, Membrane; conditions: kan-ts; also: in other assays of this panel Not Active means under 50% inhibition at 10 µM
T3 sequence (P49146 whole entry): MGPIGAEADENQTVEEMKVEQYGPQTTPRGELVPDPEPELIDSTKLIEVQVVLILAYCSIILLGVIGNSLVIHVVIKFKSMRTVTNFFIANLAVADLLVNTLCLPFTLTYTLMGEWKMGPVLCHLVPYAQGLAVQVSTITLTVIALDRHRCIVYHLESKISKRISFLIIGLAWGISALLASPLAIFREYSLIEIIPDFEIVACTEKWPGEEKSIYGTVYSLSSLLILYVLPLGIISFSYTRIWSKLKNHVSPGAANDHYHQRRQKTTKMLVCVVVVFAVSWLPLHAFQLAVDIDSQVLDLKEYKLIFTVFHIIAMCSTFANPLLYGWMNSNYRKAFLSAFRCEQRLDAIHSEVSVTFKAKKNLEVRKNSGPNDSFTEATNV

[5] = DRUGMATRIX: Glutamate, AMPA radioligand binding (ligand: [3H] AMPA); assay type: cell membranes, Rattus norvegicus, Wistar, Cerebral cortex, Membrane; conditions: Not Active = under 50% inhibition at 10 µM
[6] = target: Cytochrome P450 3A4 (Homo sapiens, UniProt P08684); conditions: bti-tn-5b1-4; also: in other assays of this panel Not Active means under 50% inhibition at 10 µM
Sequence of Cytochrome P450 3A4 (P08684 whole entry): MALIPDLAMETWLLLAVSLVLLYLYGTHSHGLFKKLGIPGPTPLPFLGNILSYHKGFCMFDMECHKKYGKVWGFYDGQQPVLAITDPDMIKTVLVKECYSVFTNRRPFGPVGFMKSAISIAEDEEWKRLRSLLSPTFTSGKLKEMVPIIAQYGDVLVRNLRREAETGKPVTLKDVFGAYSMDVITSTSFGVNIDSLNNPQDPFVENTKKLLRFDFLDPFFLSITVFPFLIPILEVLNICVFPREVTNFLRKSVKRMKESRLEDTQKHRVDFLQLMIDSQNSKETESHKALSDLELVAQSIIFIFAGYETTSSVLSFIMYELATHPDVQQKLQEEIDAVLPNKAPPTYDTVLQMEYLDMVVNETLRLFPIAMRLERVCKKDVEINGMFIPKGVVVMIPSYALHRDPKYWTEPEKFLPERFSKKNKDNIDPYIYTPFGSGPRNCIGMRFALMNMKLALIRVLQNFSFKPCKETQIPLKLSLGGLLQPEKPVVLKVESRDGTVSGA

[7] = target: Sodium-dependent noradrenaline transporter (Homo sapiens, UniProt P23975); test: DRUGMATRIX: Norepinephrine Transporter radioligand binding (ligand: [125I] RTI-55); assay type: cell membranes, MDCK, Membrane; conditions: Not Active = under 50% inhibition at 10 µM
Sequence of Sodium-dependent noradrenaline transporter (P23975 whole entry): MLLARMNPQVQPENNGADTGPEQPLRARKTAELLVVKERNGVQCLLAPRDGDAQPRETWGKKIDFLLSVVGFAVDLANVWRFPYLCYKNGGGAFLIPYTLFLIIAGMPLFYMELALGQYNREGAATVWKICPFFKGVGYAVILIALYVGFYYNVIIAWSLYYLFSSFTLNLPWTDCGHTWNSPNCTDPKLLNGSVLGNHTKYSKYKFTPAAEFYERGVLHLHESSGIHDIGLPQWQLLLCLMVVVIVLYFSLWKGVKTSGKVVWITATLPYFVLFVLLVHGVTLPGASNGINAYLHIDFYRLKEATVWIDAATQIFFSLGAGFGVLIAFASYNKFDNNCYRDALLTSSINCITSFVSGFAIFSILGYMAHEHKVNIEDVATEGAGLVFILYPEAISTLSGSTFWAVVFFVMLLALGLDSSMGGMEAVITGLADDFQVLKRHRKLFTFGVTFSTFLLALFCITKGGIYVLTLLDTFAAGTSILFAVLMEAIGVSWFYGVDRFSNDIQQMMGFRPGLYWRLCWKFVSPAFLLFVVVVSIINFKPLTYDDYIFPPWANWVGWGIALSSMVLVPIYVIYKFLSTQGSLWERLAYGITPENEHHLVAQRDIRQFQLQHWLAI

## C[C@]12CCC(=O)C=C1CC[C@@H]1[C@@H]2CC[C@@]2(C)[C@H]1CC[C@]2(C)O [METHYLTESTOSTERONE]
[1]; cho-k1
  IC50: Not Active
[2]
  IC50: Not Active
[3]
  IC50: Not Active
  Ki: Not Active
[4]
  IC50: Not Active
[5]
  IC50: Not Active
  Ki: Not Active
[6]
  IC50: Not Active
  Ki: Not Active
[7]; mdck
  IC50: Not Active

## Cc1ccccc1N1C(=O)c2cc(S(N)(=O)=O)c(Cl)cc2NC1C (centres undefined) [METOLAZONE]
[1]; cho-k1
  IC50: Not Active
[2]
  IC50: Not Active
[3]
  IC50: Not Active
  Ki: Not Active
[4]
  IC50: Not Active
[5]
  IC50: Not Active
  Ki: Not Active
[6]
  IC50: Not Active
  Ki: Not Active
[7]; mdck
  IC50: Not Active

## COCCc1ccc(OCC(O)CNC(C)C)cc1 (centres undefined) [METOPROLOL]
[1]; cho-k1
  IC50: Not Active
[2]
  IC50: Not Active
[3]
  IC50: Not Active
  Ki: Not Active
[4]
  IC50: Not Active
[5]
  IC50: Not Active
  Ki: Not Active
[6]
  IC50: Not Active
  Ki: Not Active
[7]; mdck
  IC50: Not Active

## CCn1cc(C(=O)O)c(=O)c2cc(F)c(N3CCNCC3)cc21 [NORFLOXACIN]
[1]; cho-k1
  IC50: Not Active
[2]
  IC50: Not Active
[3]
  IC50: Not Active
  Ki: Not Active
[4]
  IC50: Not Active
[5]
  IC50: Not Active
  Ki: Not Active
[6]
  IC50: Not Active
  Ki: Not Active
[7]; mdck
  IC50: Not Active

## NC1=NC(=O)C(c2ccccc2)O1 (centres undefined) [PEMOLINE]
[1]; cho-k1
  IC50: Not Active
[2]
  IC50: Not Active
[3]
  IC50: Not Active
  Ki: Not Active
[4]
  IC50: Not Active
[5]
  IC50: Not Active
  Ki: Not Active
[6]
  IC50: Not Active
  Ki: Not Active
[7]; mdck
  IC50: Not Active

## Nc1nc2c(ncn2CCC(CO)CO)c(=O)[nH]1 [PENCICLOVIR]
[1]; cho-k1
  IC50: Not Active
[2]
  IC50: Not Active
[3]
  IC50: Not Active
  Ki: Not Active
[4]
  IC50: Not Active
[5]
  IC50: Not Active
  Ki: Not Active
[6]
  IC50: Not Active
  Ki: Not Active
[7]; mdck
  IC50: Not Active

## C=C(C)C1(O)OC(=O)C=C1OC (centres undefined) [PENICILLIC ACID]
[1]; cho-k1
  IC50: Not Active
[2]
  IC50: Not Active
[3]
  IC50: Not Active
  Ki: Not Active
[4]
  IC50: Not Active
[5]
  IC50: Not Active
  Ki: Not Active
[6]
  IC50: Not Active
  Ki: Not Active
[7]; mdck
  IC50: Not Active

## CCCN1C[C@H](CSC)C[C@@H]2c3cccc4[nH]cc(c34)C[C@H]21 [PERGOLIDE]
[1]; cho-k1
  IC50: Not Active
[2]
  IC50: Not Active
[3]
  IC50: Not Active
  Ki: Not Active
[4]
  IC50: Not Active
[5]
  IC50: Not Active
  Ki: Not Active
[6]
  IC50: Not Active
  Ki: Not Active
[7]; mdck
  IC50: Not Active

## C1CCC(C(CC2CCCCN2)C2CCCCC2)CC1 (centres undefined) [PERHEXILINE]
[1]; read-out: IC50
  IC50: 1090 nM
[1]; read-out: Ki
  Ki: 785 nM
[2]
  IC50: Not Active
[3]
  IC50: Not Active
  Ki: Not Active
[4]
  IC50: Not Active
[5]
  IC50: Not Active
  Ki: Not Active
[6]
  IC50: Not Active
  Ki: Not Active
[7]; read-out: IC50
  IC50: 3290 nM
[7]; read-out: Ki
  Ki: 3270 nM

## CCOc1ccc(NC(C)=O)cc1 [PHENACETIN]
[1]; cho-k1
  IC50: Not Active
[2]
  IC50: Not Active
[3]
  IC50: Not Active
  Ki: Not Active
[4]
  IC50: Not Active
[5]
  IC50: Not Active
  Ki: Not Active
[6]
  IC50: Not Active
  Ki: Not Active
[7]; mdck
  IC50: Not Active

## CNNCc1ccc(C(=O)NC(C)C)cc1 [PROCARBAZINE]
[1]; cho-k1
  IC50: Not Active
[2]
  IC50: Not Active
[3]
  IC50: Not Active
  Ki: Not Active
[4]
  IC50: Not Active
[5]
  IC50: Not Active
  Ki: Not Active
[6]
  IC50: Not Active
  Ki: Not Active
[7]; mdck
  IC50: Not Active

## CC(O)CO (centres undefined) [PROPYLENE GLYCOL]
[1]; cho-k1
  IC50: Not Active
[2]
  IC50: Not Active
[3]
  IC50: Not Active
  Ki: Not Active
[4]
  IC50: Not Active
[5]
  IC50: Not Active
  Ki: Not Active
[6]
  IC50: Not Active
  Ki: Not Active
[7]; mdck
  IC50: Not Active

## CADMIUM ACETATE
[1]; cho-k1
  IC50: Not Active
  Ki: Not Active
[2]
  IC50: Not Active
  Ki: Not Active
[3]
  IC50: Not Active
  Ki: Not Active
[4]
  IC50: Not Active
  Ki: Not Active
[5]
  IC50: Not Active
  Ki: Not Active
[6]
  IC50: Not Active
  Ki: Not Active
[7]; mdck
  IC50: Not Active
  Ki: Not Active

## LEAD (II) ACETATE
[1]; cho-k1
  IC50: Not Active
  Ki: Not Active
[2]
  IC50: Not Active
  Ki: Not Active
[3]
  IC50: Not Active
  Ki: Not Active
[4]
  IC50: Not Active
  Ki: Not Active
[5]
  IC50: Not Active
  Ki: Not Active
[6]
  IC50: Not Active
  Ki: Not Active
[7]; mdck
  IC50: Not Active
  Ki: Not Active

## LIPOPOLYSACCHARIDE E. COLI O55:B5
[1]; cho-k1
  IC50: Not Active
  Ki: Not Active
[2]
  IC50: Not Active
  Ki: Not Active
[3]
  IC50: Not Active
  Ki: Not Active
[4]
  IC50: Not Active
  Ki: Not Active
[5]
  IC50: Not Active
  Ki: Not Active
[6]
  IC50: Not Active
  Ki: Not Active
[7]; mdck
  IC50: Not Active
  Ki: Not Active

Reference: ChEMBL document CHEMBL1909046, “DrugMatrix in vitro pharmacology data”
